# ChEMBL document CHEMBL1201861, “Genomics of Drug Sensitity in Cancer screening data, Wellcome Trust Sanger Institute”
# Experiments:
# Test in all cases: cells
# TE-9 = type: functional, cell-based, Homo sapiens; conditions: Homo sapiens, TE-9;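 also: cell growth inhibition, measured with a cell viability readout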
# SCC-15 = type: functional, cell-based, Homo sapiens; conditions: Homo sapiens, SCC-15;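 also: growth inhibition of SCC-15 cells, read out with a cell viability assay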
# no-10 = type: functional, cell-based, Homo sapiens; conditions: Homo sapiens;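 also: growth inhibition of no-10 cells, read out with a cell viability assay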
# QIMR-WIL = type: functional, cell-based, Homo sapiens; conditions: Homo sapiens, QIMR-WIL;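 also: growth inhibition of QIMR-WIL cells, read out with a cell viability assay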
# NCI-H1355 = type: functional, cell-based, Homo sapiens; conditions: Homo sapiens, NCI-H1355;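 also: growth inhibition of human NCI-H1355 cells, read out by a cell viability assay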
# TGBC1TKB = type: functional, cell-based, Homo sapiens; conditions: Homo sapiens, TGBC1TKB;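 also: growth inhibition of TGBC1TKB cells, read out by a cell viability assay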
# HCC2157 = type: functional, cell-based, Homo sapiens; conditions: Homo sapiens, HCC2157;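 also: growth inhibition of the cancer cell line, read out as cell viability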
# 8-MG-BA = type: functional, cell-based, Homo sapiens; conditions: Homo sapiens, 8-MG-BA;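 also: growth inhibition of 8-MG-BA cells, read out with a cell viability assay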
# L-428 = type: functional, cell-based, Homo sapiens; conditions: Homo sapiens, L-428
# NCI-H1299 = type: functional, cell-based; conditions: Homo sapiens;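 also: growth inhibition of human NCI-H1299 cells, read out by a cell viability assay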
# NB6 = type: functional, cell-based, Homo sapiens; conditions: Homo sapiens, NB6;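 also: growth inhibition of NB6 cells, read out by a cell viability assay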
# LB771-HNC = type: functional, cell-based; conditions: Homo sapiens;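 also: growth inhibition of LB771-HNC human cells, read out with a cell viability assay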
# NCI-H226 = type: functional, cell-based, Homo sapiens; conditions: Homo sapiens, NCI-H226;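 also: cell viability read-out used to gauge growth inhibition of the cells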
# GAK = type: functional, cell-based, Homo sapiens; conditions: Homo sapiens, GAK
# D-247MG = type: functional, cell-based; conditions: Homo sapiens
# U-87 MG = type: functional, cell-based, Homo sapiens, U-87MG ATCC; conditions: Homo sapiens, U-87 MG;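 also: growth inhibition of the cells measured with a viability assay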
# SJSA-1 = type: functional, cell-based, Homo sapiens; conditions: Homo sapiens, SJSA-1;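 also: growth inhibition of human SJSA-1 cells, read out through a cell viability measurement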
# HCC1187 = type: functional, cell-based, Homo sapiens; conditions: Homo sapiens, HCC1187;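 also: growth inhibition of HCC1187 cells, read out with a cell viability assay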
# SK-NEP-1 = type: functional, cell-based, Homo sapiens; conditions: Homo sapiens, SK-NEP-1;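 also: growth inhibition of human SK-NEP-1 cells, read out by a cell viability assay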
# BV-173 = type: functional, cell-based, Homo sapiens; conditions: Homo sapiens, BV-173
# MOLT-16 = type: functional, cell-based, Homo sapiens; conditions: Homo sapiens, MOLT-16;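 also: growth inhibition of human MOLT-16 cells, read out with a cell viability assay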
# SNB-75 = type: functional, cell-based, Homo sapiens; conditions: Homo sapiens, SNB-75;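 also: cell viability assay measuring growth inhibition of human SNB-75 cells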
# NCI-H526 = type: functional, cell-based, Homo sapiens; conditions: Homo sapiens, NCI-H526;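 also: growth inhibition of the human NCI-H526 cell line, measured by a cell viability assay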
# EW-18 = type: functional, cell-based, Homo sapiens; conditions: Homo sapiens, EW-18; read-out: IC50;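 also: growth inhibition of EW-18 cells, read out by a cell viability assay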
# ES5 = type: functional, cell-based, Homo sapiens; conditions: Homo sapiens, ES5;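 also: growth inhibition of human ES5 cells, read out by a cell viability assay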
# TE-5 = type: functional, cell-based, Homo sapiens; conditions: Homo sapiens, TE-5;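 also: inhibition of cell growth, read out by a cell viability assay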
# OVCAR-4 = type: functional, cell-based, Homo sapiens; conditions: Homo sapiens, OVCAR-4;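 also: growth inhibition of human OVCAR-4 cells, measured with a cell viability assay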
# SK-PN-DW = type: functional, cell-based, Homo sapiens; conditions: Homo sapiens, SK-PN-DW;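 also: growth inhibition measured with a viability assay on these cells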
# RXF 393 = type: functional, cell-based, Homo sapiens; conditions: Homo sapiens, RXF 393;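 also: growth inhibition of human RXF 393 cells, read out with a cell viability assay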
# SW 962 = type: functional, cell-based, Homo sapiens; conditions: Homo sapiens, SW 962;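 also: growth inhibition of human SW962 cells, read out by a cell viability assay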
# OCUB-M = type: functional, cell-based; conditions: Homo sapiens;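 also: growth inhibition of the cancer cell line, read out through a cell viability assay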
# PSN1 = type: functional, cell-based, Homo sapiens; conditions: Homo sapiens, PSN1;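 also: suppression of growth of human PSN1 cells, read out by a cell viability assay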
# NCI-H1092 = type: functional, cell-based, Homo sapiens; conditions: Homo sapiens, NCI-H1092;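 also: cell growth inhibition measured with a cell viability assay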
# NCI-H720 = type: functional, cell-based, Homo sapiens; conditions: Homo sapiens, NCI-H720;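 also: growth inhibition of human NCI-H720 cells determined by a cell viability assay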
# LB1047-RCC = type: functional, cell-based, Homo sapiens; conditions: Homo sapiens, LB1047-RCC;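 also: inhibition of cell growth, determined with a cell viability assay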
# MHH-NB-11 = type: functional, cell-based, Homo sapiens; conditions: Homo sapiens, MHH-NB-11;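 also: growth inhibition of human MHH-NB-11 cells, read out by a cell viability assay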
# L-363 = type: functional, cell-based, Homo sapiens; conditions: Homo sapiens, L-363
# GR-ST = type: functional, cell-based, Homo sapiens; conditions: Homo sapiens, GR-ST
# GI-1 = type: functional, cell-based, Homo sapiens; conditions: Homo sapiens, GI-1;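 also: growth inhibition of human GI-1 cells, measured with a cell viability readout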
# NB5 = type: functional, cell-based, Homo sapiens; conditions: Homo sapiens, NB5;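 also: growth inhibition of NB5 cells, read out as cell viability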
# OCI-AML2 = type: functional, cell-based, Homo sapiens; conditions: Homo sapiens, OCI-AML2;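 also: growth inhibition of OCI-AML2 cells, read out with a cell viability assay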
# LXF-289 cell line = type: functional, cell-based; conditions: Homo sapiens
# RH-1 = type: functional, cell-based, Homo sapiens; conditions: Homo sapiens, RH-1;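 also: growth inhibition of human RH-1 cells, read out with a cell viability assay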
# KP-N-YS = type: functional, cell-based, Homo sapiens; conditions: Homo sapiens, KP-N-YS;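 also: cell viability assay measuring inhibition of cell line growth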
# HAL-01 = type: functional, cell-based, Homo sapiens; conditions: Homo sapiens, HAL-01;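 also: growth inhibition of human HAL-01 cells, read out with a cell viability assay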
# NEC8 = type: functional, cell-based, Homo sapiens; conditions: Homo sapiens, NEC8;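 also: growth inhibition of human NEC8 cells, read out by a cell viability assay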
# CCRF-CEM = type: functional, cell-based, Homo sapiens; conditions: Homo sapiens, CCRF-CEM;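 also: inhibition of CCRF-CEM cell growth, measured by a cell viability assay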
# NCI-N87 = type: functional, cell-based; conditions: Homo sapiens;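 also: growth inhibition of human NCI-N87 cells, read out with a cell viability assay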
# MV4-11 = type: functional, cell-based, Homo sapiens, MV-4-11; conditions: Homo sapiens, MV4-11;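 also: cell viability readout measuring growth inhibition of human MV-4-11 cells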
structure (smiles),measurement,setting,value
C[C@@H](Oc1cc(-c2cnn(C3CCNCC3)c2)cnc1N)c1c(Cl)ccc(F)c1Cl [CRIZOTINIB],IC50,TE-9,> 2000 nM
same,IC50,SCC-15,> 2000 nM
same,IC50,no-10,> 2000 nM
same,IC50,QIMR-WIL,> 2000 nM
same,IC50,NCI-H1355,> 2000 nM
same,IC50,TGBC1TKB,> 2000 nM
same,IC50,HCC2157,> 2000 nM
same,IC50,8-MG-BA,> 2000 nM
same,IC50,L-428,> 2000 nM
same,IC50,NCI-H1299,> 2000 nM
same,IC50,NB6,> 2000 nM
same,IC50,LB771-HNC,> 2000 nM
same,IC50,NCI-H226,> 2000 nM
same,IC50,D-247MG,> 2000 nM
same,IC50,U-87 MG,> 2000 nM
same,IC50,SJSA-1,> 2000 nM
same,IC50,HCC1187,> 2000 nM
same,IC50,SK-NEP-1,> 2000 nM
same,IC50,BV-173,1060 nM
same,IC50,MOLT-16,1960 nM
same,IC50,SNB-75,> 2000 nM
same,IC50,NCI-H526,> 2000 nM
same,IC50,EW-18,> 2000 nM
same,IC50,ES5,> 2000 nM
same,IC50,TE-5,> 2000 nM
same,IC50,OVCAR-4,> 2000 nM
same,IC50,SK-PN-DW,> 2000 nM
same,IC50,RXF 393,> 2000 nM
same,IC50,SW 962,> 2000 nM
same,IC50,OCUB-M,> 2000 nM
same,IC50,PSN1,> 2000 nM
same,IC50,NCI-H1092,> 2000 nM
same,IC50,NCI-H720,> 2000 nM
same,IC50,LB1047-RCC,> 2000 nM
same,IC50,MHH-NB-11,> 2000 nM
same,IC50,L-363,> 2000 nM
same,IC50,GR-ST,> 2000 nM
same,IC50,GI-1,> 2000 nM
same,IC50,NB5,> 2000 nM
same,IC50,OCI-AML2,> 2000 nM
same,IC50,LXF-289 cell line,> 2000 nM
same,IC50,RH-1,> 2000 nM
same,IC50,KP-N-YS,> 2000 nM
same,IC50,HAL-01,> 2000 nM
same,IC50,NEC8,> 2000 nM
same,IC50,CCRF-CEM,> 2000 nM
same,IC50,NCI-N87,> 2000 nM
same,IC50,MV4-11,> 2000 nM
COc1cc(N2CCC(N3CCN(C)CC3)CC2)ccc1Nc1ncc(Cl)c(Nc2ccccc2S(=O)(=O)C(C)C)n1 [TAE-684],IC50,TE-9,1110 nM
same,IC50,SCC-15,> 2000 nM
same,IC50,no-10,> 2000 nM
same,IC50,QIMR-WIL,> 2000 nM
same,IC50,NCI-H1355,552 nM
same,IC50,TGBC1TKB,> 2000 nM
same,IC50,HCC2157,1470 nM
same,IC50,8-MG-BA,> 2000 nM
same,IC50,L-428,> 2000 nM
same,IC50,NCI-H1299,> 2000 nM
same,IC50,NB6,> 2000 nM
same,IC50,LB771-HNC,898 nM
same,IC50,NCI-H226,> 2000 nM
same,IC50,D-247MG,> 2000 nM
same,IC50,U-87 MG,> 2000 nM
same,IC50,SJSA-1,637 nM
same,IC50,HCC1187,1860 nM
same,IC50,SK-NEP-1,235 nM
same,IC50,BV-173,> 2000 nM
same,IC50,MOLT-16,876 nM
same,IC50,SNB-75,> 2000 nM
same,IC50,NCI-H526,> 2000 nM
same,IC50,EW-18,> 2000 nM
same,IC50,ES5,> 2000 nM
same,IC50,TE-5,> 2000 nM
same,IC50,OVCAR-4,406 nM
same,IC50,SK-PN-DW,1260 nM
same,IC50,RXF 393,558 nM
same,IC50,SW 962,1560 nM
same,IC50,OCUB-M,1360 nM
same,IC50,PSN1,196 nM
same,IC50,NCI-H1092,> 2000 nM
same,IC50,NCI-H720,1360 nM
same,IC50,LB1047-RCC,545 nM
same,IC50,MHH-NB-11,> 2000 nM
same,IC50,L-363,824 nM
same,IC50,GR-ST,1390 nM
same,IC50,GI-1,1100 nM
same,IC50,NB5,1580 nM
same,IC50,OCI-AML2,483 nM
same,IC50,LXF-289 cell line,1030 nM
same,IC50,RH-1,> 2000 nM
same,IC50,KP-N-YS,> 2000 nM
same,IC50,HAL-01,1150 nM
same,IC50,NEC8,413 nM
same,IC50,CCRF-CEM,> 2000 nM
same,IC50,NCI-N87,> 2000 nM
same,IC50,MV4-11,394 nM
